Experimental data as given in ChEMBL document CHEMBL2069199, “Development of isoform selective PI3-kinase inhibitors as pharmacological tools for elucidating the PI3K pathway” (Bioorg Med Chem Lett, 2012).
pIC50, pKi: −log10 of the molar value.

Tests used:
[1] = Antiinflammatory activity in human neutrophils assessed as inhibition of fMLP-induced oxidative burst; assay type: functional, cell-based; conditions: neutrophil
[2] = molecular target: T1, Phosphatidylinositol 4,5-bisphosphate 3-kinase catalytic subunit alpha isoform (Homo sapiens, UniProt P42336); assay: Inhibition of recombinant GST-tagged PI3K p110alpha using [32P]ATP after 60 mins by scintillation proximity assay
T1 sequence (P42336 whole entry, canonical isoform): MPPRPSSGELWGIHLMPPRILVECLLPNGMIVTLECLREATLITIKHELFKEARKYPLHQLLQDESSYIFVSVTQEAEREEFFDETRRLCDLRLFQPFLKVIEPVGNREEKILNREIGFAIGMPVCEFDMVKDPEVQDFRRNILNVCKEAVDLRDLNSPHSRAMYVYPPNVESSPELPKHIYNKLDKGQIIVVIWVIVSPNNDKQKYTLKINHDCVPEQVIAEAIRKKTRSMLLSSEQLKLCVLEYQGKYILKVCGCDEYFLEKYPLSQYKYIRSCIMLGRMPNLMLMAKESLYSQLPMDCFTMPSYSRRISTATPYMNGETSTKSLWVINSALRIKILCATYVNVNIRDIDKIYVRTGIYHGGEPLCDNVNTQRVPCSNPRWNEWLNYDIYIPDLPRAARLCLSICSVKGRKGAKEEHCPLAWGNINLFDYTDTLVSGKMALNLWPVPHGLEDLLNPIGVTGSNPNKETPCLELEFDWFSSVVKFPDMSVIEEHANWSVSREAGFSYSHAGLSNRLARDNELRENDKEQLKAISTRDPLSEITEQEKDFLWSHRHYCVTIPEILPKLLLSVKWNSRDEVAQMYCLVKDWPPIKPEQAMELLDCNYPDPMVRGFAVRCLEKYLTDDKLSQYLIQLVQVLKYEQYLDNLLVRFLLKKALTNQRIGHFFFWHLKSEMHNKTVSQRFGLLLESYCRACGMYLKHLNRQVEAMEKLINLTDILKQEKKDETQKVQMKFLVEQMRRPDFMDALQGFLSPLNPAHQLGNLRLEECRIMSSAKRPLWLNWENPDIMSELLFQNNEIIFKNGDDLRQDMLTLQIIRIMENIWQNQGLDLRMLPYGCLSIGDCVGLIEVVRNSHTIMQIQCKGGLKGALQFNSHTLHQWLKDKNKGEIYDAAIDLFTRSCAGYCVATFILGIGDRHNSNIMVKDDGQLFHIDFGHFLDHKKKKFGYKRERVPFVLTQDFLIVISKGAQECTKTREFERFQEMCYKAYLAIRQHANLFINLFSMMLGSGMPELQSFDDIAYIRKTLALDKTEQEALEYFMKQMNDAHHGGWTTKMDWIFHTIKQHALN

[3] = molecular target: T2, Phosphatidylinositol 4,5-bisphosphate 3-kinase catalytic subunit gamma isoform (Homo sapiens, UniProt P48736)
T2 sequence (P48736 whole entry, canonical isoform): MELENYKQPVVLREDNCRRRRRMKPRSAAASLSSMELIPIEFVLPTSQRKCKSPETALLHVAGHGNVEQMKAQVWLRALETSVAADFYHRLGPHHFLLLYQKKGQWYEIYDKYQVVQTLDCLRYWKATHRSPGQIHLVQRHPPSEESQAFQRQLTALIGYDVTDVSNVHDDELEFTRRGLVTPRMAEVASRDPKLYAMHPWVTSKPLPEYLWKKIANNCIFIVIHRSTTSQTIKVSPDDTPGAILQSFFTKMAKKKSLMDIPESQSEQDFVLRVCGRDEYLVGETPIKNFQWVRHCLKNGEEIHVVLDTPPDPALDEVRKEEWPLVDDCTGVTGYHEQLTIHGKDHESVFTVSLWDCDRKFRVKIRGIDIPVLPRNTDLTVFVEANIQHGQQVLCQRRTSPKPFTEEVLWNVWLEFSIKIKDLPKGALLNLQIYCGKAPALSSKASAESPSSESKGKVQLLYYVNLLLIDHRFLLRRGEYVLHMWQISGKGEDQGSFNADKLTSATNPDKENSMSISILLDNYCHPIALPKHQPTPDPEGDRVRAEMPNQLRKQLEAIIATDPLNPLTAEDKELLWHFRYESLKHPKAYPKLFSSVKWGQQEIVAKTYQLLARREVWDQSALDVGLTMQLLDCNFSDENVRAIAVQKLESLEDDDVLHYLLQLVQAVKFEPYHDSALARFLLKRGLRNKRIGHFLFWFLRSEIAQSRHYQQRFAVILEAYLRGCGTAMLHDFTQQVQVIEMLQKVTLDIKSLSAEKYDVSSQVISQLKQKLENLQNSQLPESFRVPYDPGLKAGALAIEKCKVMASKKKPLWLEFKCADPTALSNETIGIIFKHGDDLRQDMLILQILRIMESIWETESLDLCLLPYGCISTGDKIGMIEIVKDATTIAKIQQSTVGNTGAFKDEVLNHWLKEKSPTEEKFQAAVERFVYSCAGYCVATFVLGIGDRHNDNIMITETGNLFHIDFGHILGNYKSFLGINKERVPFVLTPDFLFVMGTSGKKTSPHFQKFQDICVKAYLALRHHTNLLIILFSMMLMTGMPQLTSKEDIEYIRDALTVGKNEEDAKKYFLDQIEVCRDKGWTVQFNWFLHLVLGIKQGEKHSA
Description: Inhibition of recombinant GST-tagged PI3K p110gamma using [32P]ATP after 60 mins by scintillation proximity assay

[4] = molecular target: T3, Phosphatidylinositol 4,5-bisphosphate 3-kinase catalytic subunit delta isoform (Homo sapiens, UniProt O00329); assay: Inhibition of recombinant GST-tagged PI3K p110delta using [32P]ATP after 60 mins by scintillation proximity assay
T3 sequence (O00329 whole entry): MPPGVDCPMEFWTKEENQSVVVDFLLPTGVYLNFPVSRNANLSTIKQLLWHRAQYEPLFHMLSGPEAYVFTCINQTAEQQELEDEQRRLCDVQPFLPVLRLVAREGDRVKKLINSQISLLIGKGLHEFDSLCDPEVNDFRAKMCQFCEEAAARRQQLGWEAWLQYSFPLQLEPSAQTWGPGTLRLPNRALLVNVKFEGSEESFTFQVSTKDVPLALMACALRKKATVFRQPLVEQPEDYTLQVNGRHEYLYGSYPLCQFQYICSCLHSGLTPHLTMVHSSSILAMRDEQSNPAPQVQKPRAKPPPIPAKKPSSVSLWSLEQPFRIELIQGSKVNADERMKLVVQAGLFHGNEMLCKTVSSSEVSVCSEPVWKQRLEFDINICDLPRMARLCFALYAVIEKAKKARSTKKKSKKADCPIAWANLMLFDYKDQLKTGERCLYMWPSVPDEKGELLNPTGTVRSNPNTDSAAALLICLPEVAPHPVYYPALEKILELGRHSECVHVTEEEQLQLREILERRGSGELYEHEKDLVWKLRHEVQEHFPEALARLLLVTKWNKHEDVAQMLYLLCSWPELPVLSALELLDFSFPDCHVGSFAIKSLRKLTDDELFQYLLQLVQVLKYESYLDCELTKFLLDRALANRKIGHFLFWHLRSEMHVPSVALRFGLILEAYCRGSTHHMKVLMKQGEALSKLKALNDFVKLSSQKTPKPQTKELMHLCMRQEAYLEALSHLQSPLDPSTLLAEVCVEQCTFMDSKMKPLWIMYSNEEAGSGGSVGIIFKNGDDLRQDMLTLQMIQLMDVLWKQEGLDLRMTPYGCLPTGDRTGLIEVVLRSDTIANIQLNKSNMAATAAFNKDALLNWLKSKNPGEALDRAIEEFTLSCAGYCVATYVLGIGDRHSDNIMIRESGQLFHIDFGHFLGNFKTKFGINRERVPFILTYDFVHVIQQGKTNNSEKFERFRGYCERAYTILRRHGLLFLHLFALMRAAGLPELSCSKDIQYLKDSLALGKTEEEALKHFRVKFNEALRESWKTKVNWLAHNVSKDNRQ

[5] = molecular target: T4, Phosphatidylinositol 4,5-bisphosphate 3-kinase catalytic subunit beta isoform (Homo sapiens, UniProt P42338); assay: Inhibition of recombinant GST-tagged PI3K p110beta using [32P]ATP after 60 mins by scintillation proximity assay
T4 sequence (P42338 whole entry, canonical isoform): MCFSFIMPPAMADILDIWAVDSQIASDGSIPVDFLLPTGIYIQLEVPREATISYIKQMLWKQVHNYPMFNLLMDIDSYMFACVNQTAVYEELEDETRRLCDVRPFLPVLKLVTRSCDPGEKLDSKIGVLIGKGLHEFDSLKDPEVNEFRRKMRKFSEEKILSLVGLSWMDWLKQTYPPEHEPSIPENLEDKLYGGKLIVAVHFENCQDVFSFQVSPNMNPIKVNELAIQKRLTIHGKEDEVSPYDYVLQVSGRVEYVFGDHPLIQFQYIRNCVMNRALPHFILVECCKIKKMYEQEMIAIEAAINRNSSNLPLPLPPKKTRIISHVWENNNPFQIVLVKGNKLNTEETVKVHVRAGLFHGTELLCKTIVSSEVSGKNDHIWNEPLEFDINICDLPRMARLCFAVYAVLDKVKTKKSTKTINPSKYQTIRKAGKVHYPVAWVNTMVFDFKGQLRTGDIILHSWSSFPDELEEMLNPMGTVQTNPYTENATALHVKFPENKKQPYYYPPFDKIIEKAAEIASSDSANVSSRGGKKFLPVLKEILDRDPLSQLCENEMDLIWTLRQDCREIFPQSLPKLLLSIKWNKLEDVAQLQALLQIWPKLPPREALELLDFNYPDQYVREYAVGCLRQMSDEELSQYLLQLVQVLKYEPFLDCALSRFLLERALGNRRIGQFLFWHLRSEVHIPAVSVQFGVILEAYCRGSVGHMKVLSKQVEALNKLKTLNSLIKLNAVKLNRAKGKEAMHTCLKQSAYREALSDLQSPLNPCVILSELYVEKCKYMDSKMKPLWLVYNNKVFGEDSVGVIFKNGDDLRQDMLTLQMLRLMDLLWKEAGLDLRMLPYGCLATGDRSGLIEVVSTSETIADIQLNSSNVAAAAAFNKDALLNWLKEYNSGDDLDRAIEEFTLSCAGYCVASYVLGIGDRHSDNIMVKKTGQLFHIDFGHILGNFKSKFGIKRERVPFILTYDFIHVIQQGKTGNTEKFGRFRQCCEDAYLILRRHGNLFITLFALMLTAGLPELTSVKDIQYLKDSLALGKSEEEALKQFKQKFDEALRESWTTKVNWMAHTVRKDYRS

[6] = molecular target: Dual specificity protein kinase CLK2 (Homo sapiens, UniProt P49760); assay: Inhibition of CLK2
[7] = Clearance in Wistar rat at 5 mg/kg, po; assay type: ADME, organism-based; set-up: dose 5 mg/kg, route oral; conditions: in vivo
[8] = molecular target: Serine/threonine-protein kinase mTOR (Homo sapiens, UniProt P42345); assay: Inhibition of mTOR
[9] = molecular target: Phosphatidylinositol 3-kinase catalytic subunit type 3 (Homo sapiens, UniProt Q8NEB9); assay: Inhibition of Vps34
Chain of Phosphatidylinositol 3-kinase catalytic subunit type 3 (Q8NEB9 whole entry): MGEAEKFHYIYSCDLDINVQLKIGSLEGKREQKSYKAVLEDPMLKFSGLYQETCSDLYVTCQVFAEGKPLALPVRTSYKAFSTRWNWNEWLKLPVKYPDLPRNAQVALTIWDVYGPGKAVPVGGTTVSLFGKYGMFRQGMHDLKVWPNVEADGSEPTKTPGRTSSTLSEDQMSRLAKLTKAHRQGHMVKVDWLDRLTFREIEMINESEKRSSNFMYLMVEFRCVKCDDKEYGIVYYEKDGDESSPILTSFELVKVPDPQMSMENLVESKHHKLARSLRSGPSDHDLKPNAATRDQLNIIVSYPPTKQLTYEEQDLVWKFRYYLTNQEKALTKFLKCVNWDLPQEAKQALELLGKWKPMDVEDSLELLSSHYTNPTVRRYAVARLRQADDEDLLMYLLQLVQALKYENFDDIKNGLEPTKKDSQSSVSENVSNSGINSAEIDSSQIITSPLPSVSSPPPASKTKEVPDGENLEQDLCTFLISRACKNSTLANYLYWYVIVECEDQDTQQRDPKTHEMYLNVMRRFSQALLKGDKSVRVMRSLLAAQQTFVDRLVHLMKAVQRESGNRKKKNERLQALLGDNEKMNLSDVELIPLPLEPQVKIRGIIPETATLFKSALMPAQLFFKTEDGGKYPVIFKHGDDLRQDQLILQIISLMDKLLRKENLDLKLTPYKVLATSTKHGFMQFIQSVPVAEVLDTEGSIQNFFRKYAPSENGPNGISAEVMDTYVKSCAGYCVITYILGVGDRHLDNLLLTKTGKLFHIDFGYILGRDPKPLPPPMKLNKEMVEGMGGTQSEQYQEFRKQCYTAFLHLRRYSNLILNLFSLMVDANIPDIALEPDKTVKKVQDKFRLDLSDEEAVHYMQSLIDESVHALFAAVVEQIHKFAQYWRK

[10] = molecular target: Dual specificity protein kinase CLK1 (Homo sapiens, UniProt P49759); assay: Inhibition of CLK1
[11] = Tmax in Wistar rat at 5 mg/kg, po; assay type: ADME, organism-based; set-up: dose 5 mg/kg, route oral; conditions: in vivo
[12] = Cmax in Wistar rat at 5 mg/kg, po; assay type: ADME, organism-based; set-up: dose 5 mg/kg, route oral; conditions: in vivo
[13] = molecular target: DNA-dependent protein kinase catalytic subunit (Homo sapiens, UniProt P78527); assay: Inhibition of DNA-PK
Rattus norvegicus [14] = assay: Volume of distribution at steady state in Wistar rat at 5 mg/kg, po; assay type: ADME, organism-based; set-up: dose 5 mg/kg, route oral; conditions: in vivo
[15] = Half life in Wistar rat at 5 mg/kg, po; assay type: ADME, organism-based; set-up: dose 5 mg/kg, route oral; conditions: in vivo
[16] = Antiinflammatory activity in human B cells assessed as inhibition of mitogen-induced proliferation; assay type: functional, cell-based; conditions: B-cell
[17] = Antiinflammatory activity in mouse B cells assessed as inhibition of mitogen-induced proliferation; assay type: functional, cell-based
[18] = molecular target: Phosphatidylinositol 4-kinase beta (Homo sapiens, UniProt Q9UBF8); assay: Inhibition of PI4Kbeta
Chain of Phosphatidylinositol 4-kinase beta (Q9UBF8 whole entry): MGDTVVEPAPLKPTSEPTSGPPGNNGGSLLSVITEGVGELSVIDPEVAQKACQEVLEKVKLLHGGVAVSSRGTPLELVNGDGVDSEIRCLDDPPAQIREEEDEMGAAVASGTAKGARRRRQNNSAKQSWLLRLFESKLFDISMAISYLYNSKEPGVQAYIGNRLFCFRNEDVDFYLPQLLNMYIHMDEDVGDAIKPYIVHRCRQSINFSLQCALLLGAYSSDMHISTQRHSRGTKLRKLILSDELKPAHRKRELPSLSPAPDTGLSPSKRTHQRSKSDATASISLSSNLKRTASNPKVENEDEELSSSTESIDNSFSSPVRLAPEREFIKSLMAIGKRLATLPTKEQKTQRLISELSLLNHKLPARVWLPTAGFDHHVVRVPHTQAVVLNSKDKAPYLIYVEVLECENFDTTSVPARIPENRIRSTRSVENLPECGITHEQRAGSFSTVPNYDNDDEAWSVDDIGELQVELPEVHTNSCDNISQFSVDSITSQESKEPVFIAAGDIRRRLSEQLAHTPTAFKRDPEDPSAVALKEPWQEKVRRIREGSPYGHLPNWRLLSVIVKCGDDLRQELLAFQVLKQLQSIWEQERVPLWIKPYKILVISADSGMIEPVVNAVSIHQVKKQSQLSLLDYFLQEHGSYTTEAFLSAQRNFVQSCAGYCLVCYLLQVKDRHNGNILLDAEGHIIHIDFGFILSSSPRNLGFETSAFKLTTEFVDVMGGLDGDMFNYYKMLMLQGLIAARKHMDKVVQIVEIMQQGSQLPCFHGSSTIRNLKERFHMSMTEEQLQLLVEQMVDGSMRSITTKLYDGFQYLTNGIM

[19] = AUC in Wistar rat at 5 mg/kg, po; assay type: ADME, organism-based; set-up: dose 5 mg/kg, route oral; conditions: plasma
[20] = Oral bioavailability in Wistar rat at 5 mg/kg; assay type: ADME, organism-based; conditions: in vivo
[21] = molecular target: T1, Phosphatidylinositol 4,5-bisphosphate 3-kinase catalytic subunit alpha isoform; assay: Inhibition of recombinant GST-tagged PI3K p110alpha by KinaseGlo assay
[22] = molecular target: T2, Phosphatidylinositol 4,5-bisphosphate 3-kinase catalytic subunit gamma isoform; assay: Inhibition of recombinant GST-tagged PI3K p110gamma by KinaseGlo assay
[23] = molecular target: T4, Phosphatidylinositol 4,5-bisphosphate 3-kinase catalytic subunit beta isoform; assay: Inhibition of recombinant GST-tagged PI3K p110beta by KinaseGlo assay
[24] = molecular target: T3, Phosphatidylinositol 4,5-bisphosphate 3-kinase catalytic subunit delta isoform; assay: Inhibition of recombinant GST-tagged PI3K p110delta by KinaseGlo assay
[25] = Oral bioavailability in Wistar rat at 10 mg/kg; assay type: ADME, organism-based; conditions: in vivo
Rattus norvegicus [26] = assay: Volume of distribution at steady state in Wistar rat at 10 mg/kg, po; assay type: ADME, organism-based; set-up: dose 10 mg/kg, route oral; conditions: in vivo
[27] = Clearance in Wistar rat at 10 mg/kg, po; assay type: ADME, organism-based; set-up: dose 10 mg/kg, route oral; conditions: in vivo
[28] = Tmax in Wistar rat at 10 mg/kg, po; assay type: ADME, organism-based; set-up: dose 10 mg/kg, route oral; conditions: in vivo
[29] = (§1) AUC in Wistar rat at 10 mg/kg, po; assay type: ADME, organism-based, Plasma; set-up: dose 10 mg/kg, route oral; conditions: Wistar, plasma
[30] = Cmax in Wistar rat at 10 mg/kg, po; assay type: ADME, organism-based; set-up: dose 10 mg/kg, route oral; conditions: in vivo
[31] = Half life in Wistar rat at 10 mg/kg, po; assay type: ADME, organism-based; set-up: dose 10 mg/kg, route oral; conditions: in vivo
[32] = Aqueous solubility of the compound at pH 6.8; assay type: physicochemical
Rattus norvegicus [33] = assay: as §1; assay type: ADME, organism-based, Plasma; set-up: dose 10 mg/kg, route oral; conditions: in vivo

Row | Structure (SMILES) | pIC50 [1] | pKi [2] | pKi [3] | pKi [4] | pKi [5] | other results
1 | CC(=O)Nc1nc(C)c(-c2ccc(S(C)(=O)=O)c(C(F)(F)F)c2)s1 | 6.54 | 7.55 | 7.21 | 7.13 | 6.06 | –
2 | CC(=O)Nc1nc(C)c(-c2ccc(S(C)(=O)=O)c(Cl)c2)s1 | 5.71 | 7.46 | 7.24 | 7.10 | 5.89 | –
3 | CC(=O)Nc1nc(C)c(-c2ccc(S(C)(=O)=O)cc2)s1 | 5.71 | 6.70 | 6.64 | 6.72 | 5.87 | –
4 | CC(=O)Nc1nc(C)c(-c2ccc(-n3cccn3)cc2)s1 | 6.49 | 7.52 | 6.96 | 7.72 | 6.39 | –
5 | CCn1nnc(CCNC(=O)Nc2nc(C)c(-c3ccc(S(C)(=O)=O)c(F)c3)s2)n1 | 6.57 | 5.85 | – | 6.33 | 6.49 | pIC50 [6]: 6.93; CL/F [7]: 4 mL/min/kg; pIC50 [8]: < 5.04; pIC50 [9]: < 5.04; pIC50 [10]: 6.93; Tmax [11]: 60 min; Cmax [12]: 490 nM; pIC50 [13]: < 5.00; Vdss (Rattus norvegicus [14]): 0.6 L/kg; half-life [15]: 108 min; pIC50 [16]: 5.79; pIC50 [17]: 6.23; pIC50 [18]: 5.88; AUC [19]: 4.31 µM·h; bioavailability [20]: 24%
6 | CC(=O)Nc1nc(C)c(-c2ccc(S(C)(=O)=O)c(F)c2)s1 | 6.66 | – | – | – | – | –
7 | CC(=O)Nc1nc(C)c(-c2ccc(S(C)(=O)=O)c(C#N)c2)s1 | 6.52 | 7.35 | 7.21 | 7.10 | 6.12 | –
8 | NC(=O)[C@@H]1CCCN1C(=O)Nc1nc2ccc(-c3cnc(N)c(C(F)(F)F)c3)cc2s1 | – | – | – | – | – | pIC50 [21]: 7.40; pIC50 [22]: 5.92; pIC50 [23]: 5.53; pIC50 [24]: 6.27
9 | Cc1nc(NC(=O)NCCC(=O)OC(C)(C)C)sc1-c1ccc(S(C)(=O)=O)c(F)c1 | – | 5.67 | 7.70 | 6.42 | 7.05 | –
10 | CC(=O)Nc1nc(C)c(-c2ccc(S(N)(=O)=O)cc2)s1 | 5.59 | 6.96 | 6.96 | 6.68 | 5.84 | –
11 | CC(=O)Nc1nc(C)c(-c2ccc(C(C)=O)cc2)s1 | 5.75 | 6.72 | 6.59 | 6.59 | 5.71 | –
12 | Cc1nc(NC(=O)N2CCC[C@H]2C(N)=O)sc1-c1ccc(S(C)(=O)=O)c(C(F)(F)F)c1 | – | 7.70 | 5.94 | 5.78 | < 5.00 | –
13 | CC(=O)c1ccc(-c2sc(NC(=O)NCCC(=O)NC(C)(C)C)nc2C)cc1 | 6.66 | 5.72 | – | 6.13 | 6.60 | pIC50 [8]: < 5.04; bioavailability [25]: 57%; pIC50 [9]: < 5.04; pIC50 [13]: < 5.00; pIC50 [16]: 5.94; Vdss (Rattus norvegicus [26]): 1.4 L/kg; CL/F [27]: 23 mL/min/kg; Tmax [28]: 30 min; pIC50 [17]: 6.12; pIC50 [18]: 6.62; AUC [29]: 10.8 µM·h; Cmax [30]: 1720 nM; half-life [31]: 48 min
14 | Cc1cc(NC(=O)CCNC(=O)Nc2nc(C)c(-c3ccc(-n4cccn4)cc3)s2)no1 | 6.14 | 6.82 | 5.99 | 8.40 | 6.47 | pIC50 [8]: < 5.04; solubility [32]: < 2 µg/mL; bioavailability [25]: 3%; pIC50 [9]: < 5.04; pIC50 [13]: < 5.00; pIC50 [16]: 8.30; Vdss (Rattus norvegicus [26]): 0.4 L/kg; Tmax [28]: 480 min; pIC50 [17]: 7.85; pIC50 [18]: 7.40; AUC (Rattus norvegicus [33]): 0.69 µM·h; Cmax [30]: 50 nM; half-life [31]: 36 min
15 | CC(=O)Nc1nc(C)c(-c2ccc(S(C)(=O)=O)c(Br)c2)s1 | 6.47 | 7.96 | 7.49 | 7.21 | 6.26 | –
16 | Cc1nc(NC(=O)N2CCC[C@H]2C(N)=O)sc1-c1ccc(-n2cccn2)cc1 | 6.03 | 8.30 | 6.28 | 6.66 | 5.70 | pIC50 [8]: < 5.04; bioavailability [25]: 21%; pIC50 [9]: < 5.04; pIC50 [13]: < 5.00; pIC50 [16]: 6.49; Vdss (Rattus norvegicus [26]): 1.29 L/kg; CL/F [27]: 21 mL/min/kg; Tmax [28]: 240 min; pIC50 [17]: 6.43; pIC50 [18]: 6.04; AUC [29]: 4.1 µM·h; Cmax [30]: 280 nM; half-life [31]: 42 min
17 | Cc1nc(NC(=O)N2CCC[C@H]2C(N)=O)sc1-c1ccc(S(C)(=O)=O)cc1 | – | 6.73 | 5.24 | 5.44 | < 5.00 | –
18 | Cc1cc(NC(=O)CCNC(=O)Nc2nc(C)c(-c3ccc(S(C)(=O)=O)c(F)c3)s2)no1 | – | 6.96 | 6.92 | 8.52 | 6.07 | –
